Source: ChEMBL document CHEMBL1201862, “PubChem BioAssay data set” (2004)
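Interpolation was linear, between the two tested concentrations surrounding the appropriate level; five concentrations were tested over 48 hours in 96-well plates. At the GI50, growth is halved.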 Calls of active or inactive are those of the source. No stated cut-off is given here; in the data, active = GI50 up to about 1.1 µM and inactive = higher.

What was measured:
Assay in all cases: NCI tumour cell line growth inhibition, 48 h
[1] = tested on: NCI/ADR-RES
[2] = tested on: U-251
[3] = tested on: SK-MEL-28
[4] = tested on: SK-MEL-5
[5] = tested on: HOP-62
[6] = tested on: RXF 393
[7] = tested on: TK-10
[8] = tested on: M14
[9] = tested on: DU-145
[10] = tested on: UACC-257
[11] = tested on: SF-295
[12] = tested on: SF-268
[13] = tested on: HCT-15
[14] = tested on: MOLT-4
[15] = tested on: NCI-H23
[16] = tested on: SW-620
[17] = tested on: NCI-H460
[18] = tested on: HT-29
[19] = tested on: COLO 205
[20] = tested on: T47D
[21] = tested on: LOX IMVI
[22] = tested on: PC-3
[23] = tested on: SN12C
[24] = tested on: A498
[25] = tested on: HOP-92
[26] = tested on: NCI-H522
[27] = tested on: SNB-75
[28] = tested on: HL-60
[29] = tested on: CCRF-CEM
[30] = tested on: MCF7
[31] = tested on: UO-31
[32] = tested on: IGROV-1
[33] = tested on: SF-539
[34] = tested on: Hs-578T
[35] = tested on: SR
[36] = tested on: SK-MEL-2
[37] = tested on: OVCAR-5
[38] = tested on: ACHN
[39] = tested on: OVCAR-4
[40] = tested on: HCC 2998
[41] = tested on: KM12
[42] = tested on: SNB-19
[43] = tested on: 786-0
[44] = tested on: MDA-MB-231
[45] = tested on: Malme-3M
[46] = tested on: CAKI-1
[47] = tested on: NCI-H226
[48] = tested on: MDA-N
[49] = tested on: HCT-116
[50] = tested on: A549
[51] = tested on: OVCAR-8
[52] = tested on: MDA-MB-435
[53] = tested on: EKVX
[54] = tested on: RPMI-8226
[55] = tested on: OVCAR-3
[56] = tested on: UACC-62
[57] = tested on: SK-OV-3
[58] = tested on: K562

Measured: GI50

CCCc1cc(O)c2c(C)c3[nH]c4ccc(Cl)cc4c3c(C)c2n1
1.69 µM: [13]
inactive: [1] 3.21 µM | [2] 1.69 µM | [3] 1.46 µM | [4] 9.68 µM | [5] 2.2 µM | [6] 1.51 µM | [7] 1.94 µM | [8] 3.1 µM | [9] 6.3 µM | [10] 2 µM | [11] 2.36 µM | [12] 6.71 µM | [14] 2.81 µM | [15] 2.91 µM | [16] 1.63 µM | [17] 1.97 µM | [18] 1.77 µM | [19] 2 µM | [20] 1.85 µM | [21] 1.82 µM | [22] 4.06 µM | [23] 2.36 µM | [24] 1.49 µM | [25] 2.31 µM | [26] 1.87 µM | [27] 2.9 µM | [28] 1.67 µM | [29] 2.07 µM | [30] 1.83 µM | [31] 1.75 µM | [32] 2.13 µM | [33] 1.92 µM | [34] 9.57 µM | [35] 1.88 µM | [36] 3.57 µM | [37] 2.46 µM | [38] 1.91 µM | [39] 1.86 µM | [40] 1.62 µM | [41] 3.48 µM | [42] 2.55 µM | [43] 1.61 µM | [44] 1.85 µM | [45] 10.7 µM | [46] 2 µM | [47] 2.81 µM | [48] 1.9 µM | [49] 1.63 µM | [50] 2.24 µM | [51] 2.55 µM | [52] 1.6 µM | [53] 2.44 µM

O=C(NC/C(Cl)=C/Cl)Nc1c2ccccc2nc2ccccc12
59 µM: [13]
inactive: [1] 52 µM | [2] 70.8 µM | [3] > 100 µM | [4] 57.9 µM | [54] 53.3 µM | [5] > 100 µM | [6] > 100 µM | [7] > 100 µM | [8] 84.5 µM | [9] 54.5 µM | [10] 78.9 µM | [11] > 100 µM | [12] > 100 µM | [55] 44.5 µM | [14] 29.3 µM | [15] > 100 µM | [16] > 100 µM | [17] 60.3 µM | [18] 53.2 µM | [19] 29 µM | [20] 71.1 µM | [21] 61.2 µM | [22] > 100 µM | [23] 69.7 µM | [24] 67.1 µM | [25] 41.6 µM | [26] > 100 µM | [27] > 100 µM | [30] > 100 µM | [31] > 100 µM | [32] 35.5 µM | [56] > 100 µM | [33] 25.1 µM | [34] > 100 µM | [35] 20.5 µM | [36] > 100 µM | [37] 99.3 µM | [38] 80.5 µM | [39] 35.4 µM | [40] 86.3 µM | [41] > 100 µM | [42] > 100 µM | [43] 33.3 µM | [44] 22 µM | [57] > 100 µM | [45] > 100 µM | [46] > 100 µM | [47] 31.8 µM | [48] > 100 µM | [49] 24.3 µM | [50] > 100 µM | [51] 56.4 µM | [52] > 100 µM | [53] > 100 µM

CC(C)[C@]12O[C@H]1[C@@H]1O[C@@]13[C@@]1(C)CCC4=C(COC4=O)[C@@H]1C[C@@H]1O[C@@]13C2=O [TRIPTONIDE]
0.0251 µM: [13]
active: [1] 0.0386 µM | [2] 0.101 µM | [3] 0.0126 µM | [4] 0.0141 µM | [54] < 0.01 µM | [5] < 0.01 µM | [6] < 0.01 µM | [7] 0.0261 µM | [8] 0.0173 µM | [9] 0.0235 µM | [10] < 0.0164 µM | [11] 0.0771 µM | [12] 0.0229 µM | [55] < 0.0133 µM | [58] 0.0128 µM | [14] < 0.01 µM | [15] < 0.01 µM | [17] < 0.01 µM | [18] < 0.01 µM | [19] < 0.0113 µM | [20] 0.0238 µM | [21] < 0.01 µM | [22] 0.0227 µM | [23] < 0.0172 µM | [24] 0.0178 µM | [25] 0.0237 µM | [26] < 0.0186 µM | [27] 0.0108 µM | [28] < 0.01 µM | [29] 0.063 µM | [30] < 0.01 µM | [31] 0.0123 µM | [32] < 0.01 µM | [56] 0.0122 µM | [33] 0.0171 µM | [34] < 0.0158 µM | [35] < 0.01 µM | [36] 0.0119 µM | [37] 0.0317 µM | [38] < 0.01 µM | [39] < 0.01 µM | [40] 0.029 µM | [41] 0.824 µM | [43] 0.0248 µM | [44] 0.0248 µM | [57] 0.0397 µM | [45] 0.0191 µM | [47] < 0.0193 µM | [48] < 0.0113 µM | [49] < 0.01 µM | [50] 0.0384 µM | [51] 0.0339 µM | [52] 0.0103 µM | [53] 0.0287 µM
